Results as given in patent US20260217701A1, “SELECTIVE BET INHIBITORS AND USES THEREOF” (Tay Therapeutics Limited, priority 2022, published 2026).
Marks after values point to notes of the source that are not given here.

Experiments:
BRD4 BD1 = biological target: T1, BRD4 BD1 (Homo sapiens, UniProt O60885); assay: NanoBRET bromodomain assay, NanoLuc-BRD4-BD1 in HEK293 cells; format: binding
T1 construct: HEK293 cells were transfected using NanoLuc-BRD4-BD1 or NanoLuc-BRD4-BD2 fusion vectors
Procedure: Exemplary compounds of the disclosure are active against BRD4 BD2 and selective over BRD4 BD1. BRD4 is a representative example of the BET family, as the binding sites of all BET family members are structurally similar. […] IC50s and fold selectivity's are determined as described below and are represented in Table 1.
(§1) Plates were then incubated at 37° C.+5% CO2 incubator for 2 hours.
(§2) Fold Selectivity Calculated (IC50 BD1/IC50 BD2).

BRD4 BD2 = biological target: T2, BRD4 BD2 (Homo sapiens, UniProt O60885); assay: NanoBRET bromodomain assay, NanoLuc-BRD4-BD2 in HEK293 cells; format: binding; details: for Fold Selectivity BRD4 BD1/BD2: IC50 BD1/IC50 BD2, qualitative if an IC50 is at the upper limit; for Selectivity (BD1/BD2) / BD2: nanoBRET assay, given as symbol only; for Selectivity (BD1/BD2): higher number denotes higher selectivity; for BD2: lower number denotes higher potency
T2 construct: HEK293 cells were transfected using NanoLuc-BRD4-BD1 or NanoLuc-BRD4-BD2 fusion vectors
Procedure: as §1, §2

EAE study: body weight = format: in vivo, C57BI/6 mice; details: for Mean Body Weight / Mean Body Weight (% of Day −1): FTY720 (Group 5)
Procedure: (§3) Experimental Method H: EAE in animals treated with a BET inhibitor and vehicle. Animals were assigned to the groups outlined in Table 38.
(§4) Compound A may be formulated as illustrated in Experimental Method A (see Table 2E.). A 40 mg/mL stock solution of Compound A in DMSO was prepared and aliquots stored at −20° C. On each day of preparation an e.g., 0.75 mL aliquot of thawed stock was diluted with an equal volume of DMSO. The remaining vehicle components were added to provide the highest dose and then diluted with vehicle to provide lower doses. A 30 mg/mL stock solution of FTY720 in ethanol was prepared and stored at −20° C. Daily, the stock solution was diluted with room temperature water to a final dosing concentration of 0.6 mg/mL. Formulated Compound A, FTY720 and vehicle were each at room temperature for dosing.
(§5) Female C57BI/6 mice (9 weeks old) were acclimated for seven days prior to study initiation. On Day-1, animals were assigned to groups in a balanced manner to achieve similar average weights across the different groups. Chronic EAE was induced in female C57BI/6 mice following immunization with an emulsion of MOG35-55/CFA on Day 0, followed by an injection of pertussis toxin two hours after the initial immunization. On Day 1, a second injection of pertussis toxin was administered 24 hours after the initial immunization. Mice were injected subcutaneously at two sites on the back with the MOG35-55/CFA emulsion (Hooke Kit™ MOG35-55/CFA Emulsion PTX). The first injection site was located approximately 1 cm caudal of the neckline (upper back), and the second injection site was approximately 2 cm cranial of the base of the tail (lower back). The injection volume was 0.1 mL for each injection. The pertussis toxin was administered at the described times through intraperitoneal injection at a concentration of 85 ng/dose for both injections.
(§6) Body weight was measured three times a week (Monday, Wednesday, and Friday) starting on Day-1. Animals were scored daily for EAE starting on Day 7. In-between scores were assigned when the clinical signs fell between two below defined scores.

[1] = test system: experimental autoimmune encephalomyelitis; assay: Experimental autoimmune encephalomyelitis (EAE) model: EAE scores, onset, incidence; format: in vivo, C57BI/6 mice; details: FTY720 (Group 5)
Procedure: as §3, §4, §5, §6

In the case of `COc1ccc(-c2cn(C)c(=O)cc2-c2cn(C)c(=O)c3[nH]c(-c4cc(C)nc(C)c4)cc23)cc1.Cl` [Example 31, 2-(2,6-dimethylpyridin-4-yl)-4-(5-(4-methoxyphenyl)-1-methyl-2-ox0-1,2-dihydropyridin-4-yl)-6-methyl-1,6-dihydro-7H-pyrrolo[2,3-c]pyridin-7-one hydrogen chloride], the IC50 (BRD4 BD1) is reported as 500 to 1000 nM, the IC50 (BRD4 BD2) is reported as under 10 nM and the “Fold Selectivity BRD4 BD1/BD2” value (BRD4 BD2) is reported as “xxx (Fold >200 and ≤1000)”.
In the case of `CN1CCC(n2cc(-c3ccccc3)c(-c3cn(C)c(=O)c4[nH]c(-c5cnn(C(F)(F)F)c5)cc34)cc2=O)CC1` [Example 63, 6-methyl-4-(1-(1-methylpiperidin-4-yl)-2-oxo-5-phenyl-1,2-dihydropyridin-4-yl)-2-(1-(trifluoromethyl)-1H-pyrazol-4-yl)-1,6-dihydro-7H-pyrrolo[2,3-c]pyridin-7-one], the IC50 (BRD4 BD1) is reported as 500 to 1000 nM, the IC50 (BRD4 BD2) is reported as under 10 nM and the “Fold Selectivity BRD4 BD1/BD2” value (BRD4 BD2) is reported as “xx (Fold >50 and ≤200)”.
For `COCc1ccc(-c2cn(C)c(=O)cc2-c2cn(C)c(=O)c3[nH]c(-c4cnn(C(F)(F)F)c4)cc23)cc1` [Example 8, 4-(5-(4-(methoxymethyl)phenyl)-1-methyl-2-oxo-1,2-dihydropyridin-4-yl)-6-methyl-2-(1-(trifluoromethyl)-1H-pyrazol-4-yl)-1,6-dihydro-7H-pyrrolo[2,3-c]pyridin-7-one], the IC50 (BRD4 BD1) was over 1000 nM, the IC50 (BRD4 BD2) was under 10 nM and the “Fold Selectivity BRD4 BD1/BD2” value (BRD4 BD2) was “xxxx (Fold >1000)”.
For `Cc1cccc(C)c1Oc1cn(C)c(=O)cc1-c1cn(C)c(=O)c2[nH]c(-c3cnn(CC(F)(F)F)c3C)cc12` [Example 16, 4-(5-(2,6-dimethylphenoxy)-1-methyl-2-oxo-1,2-dihydropyridin-4-yl)-6-methyl-2-(5-methyl-1-(2,2,2-trifluoroethyl)-1H-pyrazol-4-yl)-1,6-dihydro-7H-pyrrolo[2,3-c]pyridin-7-one], the IC50 (BRD4 BD1) was over 1000 nM, the IC50 (BRD4 BD2) was under 10 nM and the “Fold Selectivity BRD4 BD1/BD2” value (BRD4 BD2) was “xx (Fold >50 and ≤200)”.
In the case of `CC(C)n1cc(-c2cc3c(-c4cc(=O)n(C)cc4-c4cccc(CN5CCOCC5)c4)cn(C)c(=O)c3[nH]2)cn1` [Example 78], the IC50 (BRD4 BD1) is reported as over 1000 nM, the IC50 (BRD4 BD2) is reported as 10 to 50 nM and the “Fold Selectivity BRD4 BD1/BD2” value (BRD4 BD2) is reported as “xxx (Fold >200 and ≤1000)”.
With `Cn1cc(-c2cccc(CN3CCNCC3)c2)c(-c2cn(C)c(=O)c3[nH]c(-c4ccc(F)cc4F)cc23)cc1=O` [Example 73] the IC50 (BRD4 BD1) was over 1000 nM, the IC50 (BRD4 BD2) was 200 to 1000 nM and the “Fold Selectivity BRD4 BD1/BD2” value (BRD4 BD2) was “x (Fold >2 and ≤50)”.
With `Cn1cc(-c2ccccc2)c(-c2cn(C)c(=O)c3[nH]c(-c4ccccc4F)cc23)cc1=O` [Example 42, 2-(2-fluorophenyl)-6-methyl-4-(1-methyl-2-oxo-5-phenyl-1,2-dihydropyridin-4-yl)-1,6-dihydro-7H-pyrrolo[2,3-c]pyridin-7-one] the IC50 (BRD4 BD1) was over 1000 nM, the IC50 (BRD4 BD2) was under 10 nM and the “Fold Selectivity BRD4 BD1/BD2” value (BRD4 BD2) was “xxxx (Fold >1000)”.
With `Cn1cc(-c2ccccc2)c(-c2cn(C)c(=O)c3[nH]c(-c4cnn(C(F)(F)F)c4)c(F)c23)cc1=O` [Compound D, 3-fluoro-6-methyl-4-(1-methyl-2-oxo-5-phenyl-1,2-dihydropyridin-4-yl)-2-(1-(trifluoromethyl)-1H-pyrazol-4-yl)-1,6-dihydro-7H-pyrrolo[2,3-c]pyridin-7-one] the “Selectivity (BD1/BD2)” value (BRD4 BD2) was “>>>>” and the BD2 (BRD4 BD2) was “<”.
With `CCCCCCCCc1ccc(CCC(N)(CO)CO)cc1` [FTY720, reference compound] the “Mean Body Weight” value (EAE study: body weight; Day 0) was 20.3 g, the “Mean Body Weight (% of Day −1)” value (EAE study: body weight; Day 0) was 100.7 % of Day −1 and the “Mean Body Weight” value (EAE study: body weight; Day 2) was 19.9 g. The “Mean Body Weight (% of Day −1)” value (EAE study: body weight; Day 2) was 98.4 % of Day −1, the “Mean Body Weight” value (EAE study: body weight; Day 5) was 21.2 g and the “Mean Body Weight (% of Day −1)” value (EAE study: body weight; Day 5) was 105.1 % of Day −1. For the same compound, the “Mean Body Weight” value (EAE study: body weight; Day 7) was 21.3 g, the “Mean Body Weight (% of Day −1)” value (EAE study: body weight; Day 7) was 105.4 % of Day −1 and the “Mean Body Weight” value (EAE study: body weight; Day 9) was 21.8 g. The “Mean Body Weight (% of Day −1)” value (EAE study: body weight; Day 9) was 108.2 % of Day −1, the “Mean Body Weight” value (EAE study: body weight; Day 12) was 21.5 g and the “Mean Body Weight (% of Day −1)” value (EAE study: body weight; Day 12) was 106.5 % of Day −1. For the same compound, the “Mean Body Weight” value (EAE study: body weight; Day 14) was 21.6 g, the “Mean Body Weight (% of Day −1)” value (EAE study: body weight; Day 14) was 107.2 % of Day −1 and the “Mean Body Weight” value (EAE study: body weight; Day 16) was 21.6 g. For the same compound, the “Mean Body Weight (% of Day −1)” value (EAE study: body weight; Day 16) was 107.0 % of Day −1, the “Mean Body Weight” value (EAE study: body weight; Day 19) was 21.6 g and the “Mean Body Weight (% of Day −1)” value (EAE study: body weight; Day 19) was 106.9 % of Day −1. For the same compound, the “Mean Body Weight” value (EAE study: body weight; Day 21) was 21.7 g, the “Mean Body Weight (% of Day −1)” value (EAE study: body weight; Day 21) was 107.5 % of Day −1 and the “Mean Body Weight” value (EAE study: body weight; Day 23) was 22.0 g. The “Mean Body Weight (% of Day −1)” value (EAE study: body weight; Day 23) was 109.3 % of Day −1, the “Mean Body Weight” value (EAE study: body weight; Day 27) was 21.9 g and the “Mean Body Weight (% of Day −1)” value (EAE study: body weight; Day 27) was 108.3 % of Day −1. For the same compound, the “Mean Body Weight” value (EAE study: body weight; Day 28) was 22.0 g, the “Mean Body Weight (% of Day −1)” value (EAE study: body weight; Day 28) was 108.9 % of Day −1 and the “Mean Body Weight” value (EAE study: body weight; Day −1) was 20.2 g. The “Mean Body Weight (% of Day −1)” value (EAE study: body weight; Day −1) was 100.0 % of Day −1, the “Mean Body Weight Change (% of Day −1)” value (EAE study: body weight; FTY720, mean end body weight) was 108.9*** % of Day −1 and the “Incidence of EAE (%)” value [1] was 16.7*** %. For the same compound, the “Mean Day of Onset (SEM)” value [1] was 18.5 (0.5) Day, the “Mean End Score (SEM)” value [1] was 0.21 (0.14)*** and the “Mean Maximum Score (SEM)” value [1] was 0.33 (0.23)***. For the same compound, the “Median Day of Onset” value [1] was over 28.0 days, the “Mean EAE score” value ([1]; Day 7) was 0.00 and the “Mean EAE score” value ([1]; Day 8) was 0.00. For the same compound, the “Mean EAE score” value ([1]; Day 9) was 0.00, the “Mean EAE score” value ([1]; Day 10) was 0.00 and the “Mean EAE score” value ([1]; Day 11) was 0.00. The “Mean EAE score” value ([1]; Day 12) was 0.00, the “Mean EAE score” value ([1]; Day 13) was 0.00 and the “Mean EAE score” value ([1]; Day 14) was 0.00. For the same compound, the “Mean EAE score” value ([1]; Day 15) was 0.00, the “Mean EAE score” value ([1]; Day 16) was 0.00 and the “Mean EAE score” value ([1]; Day 17) was 0.00. For the same compound, the “Mean EAE score” value ([1]; Day 18) was 0.13, the “Mean EAE score” value ([1]; Day 19) was 0.25 and the “Mean EAE score” value ([1]; Day 20) was 0.25. For the same compound, the “Mean EAE score” value ([1]; Day 21) was 0.29, the “Mean EAE score” value ([1]; Day 22) was 0.33 and the “Mean EAE score” value ([1]; Day 23) was 0.29. For the same compound, the “Mean EAE score” value ([1]; Day 24) was 0.29, the “Mean EAE score” value ([1]; Day 25) was 0.21 and the “Mean EAE score” value ([1]; Day 26) was 0.21. For the same compound, the “Mean EAE score” value ([1]; Day 27) was 0.21 and the “Mean EAE score” value ([1]; Day 28) was 0.21.
For `CSCCn1cc(-c2ccccc2)c(-c2cn(C)c(=O)c3[nH]c(-c4cnn(C(F)(F)F)c4)cc23)cc1=O` [Compound C, 6-methyl-4-(1-(2-(methylthio)ethyl)-2-oxo-5-phenyl-1,2-dihydropyridin-4-yl)-2-(1-(trifluoromethyl)-1H-pyrazol-4-yl)-1,6-dihydro-7H-pyrrolo[2,3-c]pyridin-7-one], the “Selectivity (BD1/BD2)” value (BRD4 BD2) was “>>>>” and the BD2 (BRD4 BD2) was “<”.
